One test has as its system NCI-H358. In words: Growth inhibition of human H358 cells expressing KRAS […] mutant measured after 3 days by Cell-titer Glo assay. In kind it is functional. Conditions: NCI-H358, 72 h, time 3 day.
The target in test [1] is RAF proto-oncogene serine/threonine-protein kinase (Homo sapiens, UniProt P04049). In words: Inhibition of human recombinant cRAF measured after 1 hr by TR-FRET assay. Background: Time-resolved FRET reads energy transfer from a long-lived donor to a nearby acceptor.
Chain of RAF proto-oncogene serine/threonine-protein kinase (P04049 whole entry): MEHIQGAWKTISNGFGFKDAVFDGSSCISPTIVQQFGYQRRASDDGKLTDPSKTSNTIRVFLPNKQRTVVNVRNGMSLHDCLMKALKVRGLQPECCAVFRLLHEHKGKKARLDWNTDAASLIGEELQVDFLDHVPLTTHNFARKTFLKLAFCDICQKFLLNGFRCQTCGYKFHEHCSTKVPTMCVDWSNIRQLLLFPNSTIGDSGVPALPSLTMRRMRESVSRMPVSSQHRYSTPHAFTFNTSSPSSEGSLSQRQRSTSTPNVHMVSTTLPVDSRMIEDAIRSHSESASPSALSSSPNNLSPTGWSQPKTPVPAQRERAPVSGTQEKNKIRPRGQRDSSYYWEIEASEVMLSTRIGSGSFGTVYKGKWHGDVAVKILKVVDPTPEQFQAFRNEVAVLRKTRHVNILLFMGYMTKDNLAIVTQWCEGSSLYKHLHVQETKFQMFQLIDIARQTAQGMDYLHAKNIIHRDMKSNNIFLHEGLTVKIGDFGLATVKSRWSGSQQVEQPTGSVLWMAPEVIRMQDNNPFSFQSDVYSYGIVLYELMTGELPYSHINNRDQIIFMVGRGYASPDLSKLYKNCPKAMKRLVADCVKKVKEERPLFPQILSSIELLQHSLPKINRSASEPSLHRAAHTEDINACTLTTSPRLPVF

As usually defined, the GI50 is the concentration at which growth is held to half of that of the control. Low values mean greater sensitivity of the cells, high ones lower sensitivity of the cells. A word on the IC50: it is the concentration that inhibits the measured activity by half.

In turn, `Cc1ccc(NC(=O)c2ccnc(C(F)(F)F)c2)cc1-c1ccc2c(c1)OC1(COC1)NC2=O` returned a GI50 in the test on NCI-H358 of 10000 nM. In addition, in test [1], the IC50 is 62 nM.
`Cc1ccc(NC(=O)c2ccnc(C(F)(F)F)c2)cc1-c1ccc2c(c1)NC1(CCOCC1)NS2(=O)=O` yielded a GI50 in the test with NCI-H358 of 19000 nM. For the same compound, the IC50 in test [1] is 60 nM.
Regarding `Cc1ccc(NC(=O)c2ccnc(C(F)(F)F)c2)cc1-c1ccc2c(c1)OC1(CCCOC1)NC2=O` (stereo not given), in the test on NCI-H358, halving of growth (GI50) required 4900 nM. Also, the IC50 in test [1] came to 5 nM.
For `Cc1ccc(NC(=O)c2ccnc(C(F)(F)F)c2)cc1-c1ccc2c(c1)OC1(CCOCC1)CC2`, in that order: 13000 nM and 36 nM.
On to `Cc1ccc(NC(=O)c2ccnc(C(F)(F)F)c2)cc1-c1ccc2c(c1)OC1(CCOCC1)CC2O` (stereo not given), for which it took 9100 nM to inhibit growth with NCI-H358 by half (GI50). In test [1], the IC50 is 19 nM.
Take `Cc1ccc(NC(=O)c2ccnc(C(F)(F)F)c2)cc1-c1ccc2c(c1)SC1(CCOCC1)CC2=O`: the GI50 in the test with NCI-H358 is 7900 nM. The IC50 in test [1] came out at 29 nM.
Compound `Cc1ccc(NC(=O)c2ccnc(C(F)(F)F)c2)cc1-c1cnc2c(c1)OC1(CCOCC1)NC2=O` came in with a GI50 in the test with NCI-H358 of 8700 nM. Moreover, the IC50 in test [1] amounted to 28 nM.
With `Cc1ccc(NC(=O)c2ccnc(C(F)(F)F)c2)cc1-c1ccc2c(c1)OC1(CCOCC1)C(=O)N2`, it took 10000 nM to inhibit growth in the test with NCI-H358 by half (GI50). The IC50 in test [1] is 14 nM.
For the compound `Cc1ccc(NC(=O)c2ccnc(C(F)(F)F)c2)cc1-c1ccc2c(c1)OC1(CCNCC1)NC2=O`, in the test on NCI-H358, the concentration for 50% growth inhibition (GI50) turned out to be 15000 nM. Besides, the IC50 in test [1] worked out at 19 nM.
Consider `Cc1ccc(NC(=O)c2ccnc(C(F)(F)F)c2)cc1-c1ccc2c(c1)OC1(CCOCC1)CC2N` (stereo not given), for which halving of growth in the test on NCI-H358 (GI50) required 6600 nM. For the same compound, the IC50 in test [1] was 21 nM.

The values above are taken from ChEMBL document CHEMBL5143623, “Discovery of novel spiro compound as RAF kinase inhibitor with in vitro potency against KRAS mutant cancer” (Bioorg Med Chem Lett, 2022).
